# Laboratory results from US7098204B2 (C.N.R.S., priority 1999, dated 2006).
# Legend:
# colon, KM20L2 = test: Human cancer cell line KM20L2 proliferation; format: cell-based; conditions: KM-20L2
# ovary, OVCAR-3 = test: Human cancer cell line OVCAR-3 proliferation; format: cell-based
# HT29-18-C1 cells = test: HT29-18-C1 growth inhibition (cell counts); format: cell-based, human
# Method: Cell culture and treatments. HT29-18-C1, a subclone of the human colon adenocarcinoma cell line HT29, was cultured in Dulbecco's modified Eagle's medium (Gibco-BRL) supplemented with 10% FCS, 2 mM L-glutamine (Eurobio) and […] gentamycin (Gibco-BRL) at 37° C., 10% CO2. Cells were synchronized by serum deprivation for 48 h. They were then released from growth arrest by the addition of 5% fetal calf serum (FCS). HD, prepared in DMSO, was added immediately to the medium, for 24 h and at final concentrations ranging from 0 to 80 μM. In some experiments HD was added 22 h after serum addition for an additional 24 h. In other experiments HD was added to unsynchronised cells. Cells were then washed and cultured in 5% FCS medium and counted or analysed by FACS at different times.
# Cell counts and flow cytometric cell cycle analysis. Cell were counted with a hemocytometer. Cell cycle distribution was analysed by flow cytometry. The adherent cells (1.10^6) were trypsinised and fixed in cold 70% ethanol for 4 h. […] The stained cells were analysed on a FACScan cytofluorimeter using the cellFit Software program (Becton Dickinson Immunocytometry Systems).
# HT29-18-C1 cells were synchronised in G1 by serum deprivation. […] Cell number was determined every 12 h for a 72 h period using a hemocytometer. […] Serum-treated cells (time 0) were exposed to various HD concentrations and counted after 24 h. […]
# casein kinase 1 = casein kinase 1 assay; format: biochemical; conditions: 15 μM ATP; −(x) = no effect at highest concentration x tested; read-out: IC50 casein kinase 1 (CK 1)
# Method: Kinases activities were assayed in Buffer A or C (unless otherwise stated), at 30° C., at a final ATP concentration of 15 μM. Blank values were subtracted and activities calculated as pmoles of phosphate incorporated for a 10 min. incubation (usually expressed in % of the maximal activity, i.e. without inhibitors). Controls were performed with appropriate dilutions of Me2SO. In some cases phosphorylation of the substrate was assessed by autoradiography after SDS-PAGE. IC50 values were estimated from the dose-response curves. • CDK1/cyclin B was extracted in homogenisation buffer from M phase starfish (Marthasterias glacialis) oocytes and purified by affinity chromatography on p9^CKShs1-Sepharose beads, from which it was eluted by free p9^CKShs1 as described. The kinase activity was assayed in buffer C, with 1 mg histone H1/ml, in the presence of 15 μM [γ-^32P] ATP (3,000 Ci/mmol; 1 mCi/ml) in a final volume of 30 μl. After 10 min. incubation at 30° C., 25 μl aliquots of supernatant were spotted onto 2.5×3 cm pieces of Whatman P81 phosphocellulose paper, and, 20 sec. later, the filters were washed five times (for at least 5 min. each time) in a solution of 10 ml phosphoric acid/liter of water. The wet filters were counted in the presence of 1 ml ACS (Amersham) scintillation fluid. • GSK-3β was either purified from rabbit muscle or expressed in and purified from insect Sf9 cells. It was assayed, following a 1/100 dilution in 1 mg BSA/ml 10 mM DTT, with 5 μl 40 μM GS-1 peptide as a substrate, in buffer A, in the presence of 15 μM [γ-^32P] ATP (3,000 Ci/mmol; 1 mCi/ml) in a final volume of 30 μl. […] Its activity was assayed in buffer C as described for CDK1/cyclin B. • CDK2/cyclin A, CDK2/cyclin E, CDK3/cyclin E, CDK4/cyclin D1, CDK6/cyclin D2, His-tagged erk1 and erk2, protein kinase C isoforms, the catalytic subunit of cAMP-dependent protein kinase, cGMP-dependent protein kinase, Myosin light chain kinase, casein kinases 1 & 2, ASK-γ (a plant homologue of GSK-3), insulin receptor tyrosine kinase domain (CIRK-41), c-raf, MAPKK, c-jun N terminal kinase (obtained from Promega), c-src kinase and v-abl kinase were assayed as described. Electrophoresis and Western Blotting
# [1] = test system: 60 human tumor cell lines; test: NCI disease-oriented in vitro screen; format: cell-based; conditions: 48 hr exposure, 0.01–100 μM, read-out: average IC50 over 60 human tumor cell lines
# Excerpt: A sulforhodaminine B protein assay was used to estimate the cytotoxicity.
# [2] = molecular target: T1, Insulin receptor tyrosine Kinase (Homo sapiens, UniProt P06213); test: insulin receptor tyrosine kinase assay; format: biochemical; conditions: 15 μM ATP
# T1 construct: insulin receptor tyrosine kinase domain (CIRK-41)
# T1 sequence (P06213 1023-1298 limits assumed): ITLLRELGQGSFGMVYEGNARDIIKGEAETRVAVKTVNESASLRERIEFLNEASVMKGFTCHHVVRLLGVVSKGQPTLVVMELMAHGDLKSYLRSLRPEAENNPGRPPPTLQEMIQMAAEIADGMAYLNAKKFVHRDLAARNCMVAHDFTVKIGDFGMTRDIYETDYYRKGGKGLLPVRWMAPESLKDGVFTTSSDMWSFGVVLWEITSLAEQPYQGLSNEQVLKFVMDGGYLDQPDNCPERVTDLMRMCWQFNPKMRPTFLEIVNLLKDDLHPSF
# Method: (§1) Kinases activities were assayed in Buffer A or C (unless otherwise stated), at 30° C., at a final ATP concentration of 15 μM. Blank values were subtracted and activities calculated as pmoles of phosphate incorporated for a 10 min. incubation (usually expressed in % of the maximal activity, i.e. without inhibitors). Controls were performed with appropriate dilutions of Me2SO. In some cases phosphorylation of the substrate was assessed by autoradiography after SDS-PAGE. IC50 values were estimated from the dose-response curves. • CDK1/cyclin B was extracted in homogenisation buffer from M phase starfish (Marthasterias glacialis) oocytes and purified by affinity chromatography on p9^CKShs1-Sepharose beads, from which it was eluted by free p9^CKShs1 as described. The kinase activity was assayed in buffer C, with 1 mg histone H1/ml, in the presence of 15 μM [γ-^32P] ATP (3,000 Ci/mmol; 1 mCi/ml) in a final volume of 30 μl. After 10 min. incubation at 30° C., 25 μl aliquots of supernatant were spotted onto 2.5×3 cm pieces of Whatman P81 phosphocellulose paper, and, 20 sec. later, the filters were washed five times (for at least 5 min. each time) in a solution of 10 ml phosphoric acid/liter of water. The wet filters were counted in the presence of 1 ml ACS (Amersham) scintillation fluid. • GSK-3β was either purified from rabbit muscle or expressed in and purified from insect Sf9 cells. […]
# protein kinase C ε = protein kinase C ε (Homo sapiens, UniProt Q02156); test: protein kinase C ε assay; format: biochemical; conditions: 15 μM ATP
# protein kinase C ε, sequence (Q02156 whole entry): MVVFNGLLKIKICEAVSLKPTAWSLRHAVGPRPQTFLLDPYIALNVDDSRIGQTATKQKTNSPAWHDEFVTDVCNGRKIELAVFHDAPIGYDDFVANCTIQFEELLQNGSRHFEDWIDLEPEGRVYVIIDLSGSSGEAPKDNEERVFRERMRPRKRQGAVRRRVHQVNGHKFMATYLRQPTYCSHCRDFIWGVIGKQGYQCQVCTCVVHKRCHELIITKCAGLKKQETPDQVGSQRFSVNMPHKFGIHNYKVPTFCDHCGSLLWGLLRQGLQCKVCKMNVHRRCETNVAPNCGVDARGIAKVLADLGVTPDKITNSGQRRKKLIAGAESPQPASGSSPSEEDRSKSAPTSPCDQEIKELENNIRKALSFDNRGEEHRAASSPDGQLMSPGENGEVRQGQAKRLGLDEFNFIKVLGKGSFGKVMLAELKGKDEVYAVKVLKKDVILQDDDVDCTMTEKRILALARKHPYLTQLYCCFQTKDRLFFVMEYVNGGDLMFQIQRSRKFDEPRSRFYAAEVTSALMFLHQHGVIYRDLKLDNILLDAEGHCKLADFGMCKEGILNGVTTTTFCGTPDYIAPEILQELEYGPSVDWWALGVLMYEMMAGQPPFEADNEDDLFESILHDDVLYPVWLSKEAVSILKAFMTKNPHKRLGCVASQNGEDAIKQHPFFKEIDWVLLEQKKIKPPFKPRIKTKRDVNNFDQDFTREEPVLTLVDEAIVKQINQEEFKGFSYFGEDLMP
# Method: as §1
# [3] = test system: GSK-3β like activity in Sf9 cells; test: Tau (htau23) phosphorylation in Sf9 cells, Western blotting; format: cell-based; conditions: 50 μM, 5 hrs, Sf9 cells expressing htau23
# Method: Cells and viruses. Sf9 cells (InVitrogen, San Diego, Calif.) were grown at 27° C. in monolayer culture Grace's medium (Gibco BRL, Gaithersburg, Md.) supplemented with 10% fetal bovine serum and 50 μg gentamycin/ml and 2.5 μg amphotericin/ml. BaculoGold was obtained from PharMingen (San Diego, Calif.), pVL1392 from In Vitrogen.
# Tau transfection. The gene for htau23, the shortest human tau isoform [27] was excised from the bacterial expression vector pNG2 [28] with XbaI and BamHI, and inserted into the baculovirus transfer vector pVL1392 cut with the same restriction endonucleases. The BaculoGold system was used to construct the tau baculovirus containing vector. The BaculoGold DNA is a modified type of baculovirus containing a lethal deletion. Cotransfection of the BaculoGold DNA with a complementing baculovirus transfer vector rescued the lethal deletion of this virus DNA and reconstituted viable virus particles carrying the htau23 coding sequence. Plasmid DNA used for transfections was purified using QIAGEN cartridges (Hilden, Germany). Sf9 cells grown in monolayers (2×10^6 cells in a 60 mm cell culture dish) were cotransfected with baculovirus DNA (0.5 μg BaculoGold DNA) and with vector derivatives of pVL1392 (2 μg) using a calcium phosphate coprecipitation method. […]
# c-src tyrosine kinase = c-src tyrosine kinase (Homo sapiens, UniProt P12931); test: c-src tyrosine kinase assay; format: biochemical; conditions: 15 μM ATP
# c-src tyrosine kinase, sequence (P12931 whole entry): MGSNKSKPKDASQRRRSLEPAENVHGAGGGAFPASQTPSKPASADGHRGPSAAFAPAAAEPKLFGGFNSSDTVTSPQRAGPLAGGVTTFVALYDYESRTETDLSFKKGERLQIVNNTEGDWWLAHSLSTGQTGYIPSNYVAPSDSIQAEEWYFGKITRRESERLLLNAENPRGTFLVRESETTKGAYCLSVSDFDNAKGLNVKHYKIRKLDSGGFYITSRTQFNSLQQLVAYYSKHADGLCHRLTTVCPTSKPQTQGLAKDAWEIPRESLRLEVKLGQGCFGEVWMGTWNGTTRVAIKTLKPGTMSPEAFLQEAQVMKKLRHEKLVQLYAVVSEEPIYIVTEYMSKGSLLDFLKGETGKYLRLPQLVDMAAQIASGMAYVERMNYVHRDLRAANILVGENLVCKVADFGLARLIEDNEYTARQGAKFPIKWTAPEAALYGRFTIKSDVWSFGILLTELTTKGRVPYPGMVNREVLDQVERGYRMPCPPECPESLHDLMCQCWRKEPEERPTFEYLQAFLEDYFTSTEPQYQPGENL
# Method: as §1
# Eg2 kinase = Eg2 kinase (Xenopus laevis, UniProt Q91820); test: Eg2 kinase assay; format: biochemical; conditions: 15 μM ATP
# Eg2 kinase, sequence (Q91820 whole entry): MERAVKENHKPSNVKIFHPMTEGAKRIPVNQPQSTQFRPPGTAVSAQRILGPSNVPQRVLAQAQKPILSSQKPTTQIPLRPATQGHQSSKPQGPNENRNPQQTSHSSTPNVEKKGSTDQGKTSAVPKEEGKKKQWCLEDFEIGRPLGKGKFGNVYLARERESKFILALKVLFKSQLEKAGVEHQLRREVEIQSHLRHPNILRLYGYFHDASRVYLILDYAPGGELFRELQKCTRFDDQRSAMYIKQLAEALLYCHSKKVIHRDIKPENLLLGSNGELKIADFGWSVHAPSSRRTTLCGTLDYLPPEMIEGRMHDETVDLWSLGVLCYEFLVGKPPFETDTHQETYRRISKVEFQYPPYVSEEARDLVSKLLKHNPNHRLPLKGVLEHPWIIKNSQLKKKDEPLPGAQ
# Method: Enzyme activities were assayed as described in the Experimental Procedures section, in the presence of increasing HD concentrations. IC50's were calculated from the dose-response curves.−, no effect at the highest dose tested (in parentheses).
smiles,measurement,setting,value
"NC1=NC(=O)C(=C2CCNC(=O)c3[nH]c(Br)cc32)N1 [hymenialdisine, 4-(2-amino-4-oxo-2-imidazolin-5-ylidene)-2-bromo-4,5,6,7-tetrahydropyrrolo (2,3-c) azepine-8-one]",IC50,"colon, KM20L2",8.5 µg/mL
same,IC50,"ovary, OVCAR-3",1.8 µg/mL
same,growth of HT29-18-C1 (cell number),"HT29-18-C1 cells; 10 μM for 24 h, followed over 72 h",strong growth inhibition
same,IC50,"HT29-18-C1 cells; Homo sapiens, serum-treated cells counted after 24 h",5 µM
same,IC50,casein kinase 1,0.035 µM
same,IC50,[1],15.1 µM
same,IC50,[2],75 µM
same,IC50,protein kinase C ε,6.5 µM
same,AT100 signal (tau phosphorylated at T212 and S214),[3],disappearance of AT100 signal
same,IC50,c-src tyrosine kinase,7 µM
same,IC50,Eg2 kinase,4 µM
